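Cells were grown in 96-well plates and exposed to each compound for 48 hours at five concentrations; endpoints were interpolated linearly between bracketing concentrations, or set to the highest concentration if not reached. TGI: concentration producing complete growth inhibition.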
Assays:
Test in all cases: DTP human tumour cell line panel, 48 h
U251 CNS = tested on: U251 CNS
786-0 renal = tested on: 786-0 renal
HCT-116 colon = tested on: HCT-116 colon
NCI-H522 lung = tested on: NCI-H522 lung
NCI/ADR-RES ovarian = tested on: NCI/ADR-RES ovarian
IGROV1 ovarian = tested on: IGROV1 ovarian
SK-MEL-5 melanoma = tested on: SK-MEL-5 melanoma
HOP-92 NSCLC = tested on: HOP-92 NSCLC
SNB-75 CNS = tested on: SNB-75 CNS
HT29 colon = tested on: HT29 colon
KM12 colon = tested on: KM12 colon
SF-268 CNS = tested on: SF-268 CNS
MALME-3M melanoma = tested on: MALME-3M melanoma
A549 NSCLC = tested on: A549 NSCLC
TK-10 renal = tested on: TK-10 renal
CCRF-CEM leukemia = tested on: CCRF-CEM leukemia
A498 renal = tested on: A498 renal
UO-31 renal = tested on: UO-31 renal
MDA-MB-231 breast = tested on: MDA-MB-231 breast
ACHN renal = tested on: ACHN renal
K-562 leukemia = tested on: K-562 leukemia
MDA-N = tested on: MDA-N
SK-MEL-2 melanoma = tested on: SK-MEL-2 melanoma
COLO 205 colon = tested on: COLO 205 colon
NCI-H226 lung = tested on: NCI-H226 lung
T-47D breast = tested on: T-47D breast
SNB-19 CNS = tested on: SNB-19 CNS
SK-OV-3 ovarian = tested on: SK-OV-3 ovarian
MOLT-4 leukemia = tested on: MOLT-4 leukemia
UACC-62 melanoma = tested on: UACC-62 melanoma
SN12C renal = tested on: SN12C renal
SK-MEL-28 melanoma = tested on: SK-MEL-28 melanoma
M14 melanoma = tested on: M14 melanoma
SF-295 CNS = tested on: SF-295 CNS
UACC-257 melanoma = tested on: UACC-257 melanoma
NCI-H23 lung = tested on: NCI-H23 lung
BT-549 breast = tested on: BT-549 breast
OVCAR-3 ovarian = tested on: OVCAR-3 ovarian
HL-60(TB) leukemia = tested on: HL-60(TB) leukemia
HOP-62 NSCLC = tested on: HOP-62 NSCLC
HCT-15 colon = tested on: HCT-15 colon
HS 578T breast = tested on: HS 578T breast
SF-539 CNS = tested on: SF-539 CNS
NCI-H460 lung = tested on: NCI-H460 lung
DU-145 prostate = tested on: DU-145 prostate
MCF7 breast = tested on: MCF7 breast
EKVX NSCLC = tested on: EKVX NSCLC
OVCAR-8 ovarian = tested on: OVCAR-8 ovarian
LOX IMVI melanoma = tested on: LOX IMVI melanoma
RXF 393 renal = tested on: RXF 393 renal
RPMI-8226 leukemia = tested on: RPMI-8226 leukemia
HCC-2998 colon = tested on: HCC-2998 colon
SW-620 colon = tested on: SW-620 colon
MDA-MB-435 = tested on: MDA-MB-435
CAKI-1 renal = tested on: CAKI-1 renal
OVCAR-4 ovarian = tested on: OVCAR-4 ovarian
PC-3 prostate = tested on: PC-3 prostate
OVCAR-5 ovarian = tested on: OVCAR-5 ovarian
SR leukemia = tested on: SR leukemia

## c1ccc2c(c1)CCN(C1=NCCO1)C2
U251 CNS
  TGI: > 10 µM
786-0 renal
  TGI: > 10 µM
HCT-116 colon
  TGI: > 10 µM
NCI-H522 lung
  TGI: > 10 µM
NCI/ADR-RES ovarian
  TGI: > 10 µM
IGROV1 ovarian
  TGI: > 10 µM
SK-MEL-5 melanoma
  TGI: > 10 µM
HOP-92 NSCLC
  TGI: > 10 µM
SNB-75 CNS
  TGI: > 10 µM
HT29 colon
  TGI: > 10 µM
KM12 colon
  TGI: > 10 µM
SF-268 CNS
  TGI: > 10 µM
MALME-3M melanoma
  TGI: > 10 µM
A549 NSCLC
  TGI: > 10 µM
TK-10 renal
  TGI: > 10 µM
CCRF-CEM leukemia
  TGI: > 10 µM
A498 renal
  TGI: > 10 µM
UO-31 renal
  TGI: > 10 µM
MDA-MB-231 breast
  TGI: > 10 µM
ACHN renal
  TGI: > 10 µM
K-562 leukemia
  TGI: > 10 µM
MDA-N
  TGI: > 10 µM
SK-MEL-2 melanoma
  TGI: > 10 µM
COLO 205 colon
  TGI: > 10 µM
NCI-H226 lung
  TGI: > 10 µM
T-47D breast
  TGI: > 10 µM
SNB-19 CNS
  TGI: > 10 µM
SK-OV-3 ovarian
  TGI: > 10 µM
MOLT-4 leukemia
  TGI: > 10 µM
UACC-62 melanoma
  TGI: > 10 µM
SN12C renal
  TGI: > 10 µM
SK-MEL-28 melanoma
  TGI: > 10 µM
M14 melanoma
  TGI: > 10 µM
SF-295 CNS
  TGI: > 10 µM
UACC-257 melanoma
  TGI: > 10 µM
NCI-H23 lung
  TGI: > 10 µM
BT-549 breast
  TGI: > 10 µM
OVCAR-3 ovarian
  TGI: > 10 µM
HL-60(TB) leukemia
  TGI: > 10 µM
HOP-62 NSCLC
  TGI: > 10 µM
HCT-15 colon
  TGI: > 10 µM
HS 578T breast
  TGI: > 10 µM
SF-539 CNS
  TGI: > 10 µM
NCI-H460 lung
  TGI: > 10 µM
DU-145 prostate
  TGI: > 10 µM
MCF7 breast
  TGI: > 10 µM
EKVX NSCLC
  TGI: > 10 µM
OVCAR-8 ovarian
  TGI: > 10 µM
LOX IMVI melanoma
  TGI: > 10 µM
RXF 393 renal
  TGI: > 10 µM
RPMI-8226 leukemia
  TGI: > 10 µM
HCC-2998 colon
  TGI: > 10 µM
SW-620 colon
  TGI: > 10 µM
MDA-MB-435
  TGI: > 10 µM
CAKI-1 renal
  TGI: > 10 µM
OVCAR-4 ovarian
  TGI: > 10 µM
PC-3 prostate
  TGI: > 10 µM
OVCAR-5 ovarian
  TGI: > 10 µM

## NNC(=Nc1ccccc1)SCc1ccccc1
U251 CNS
  TGI: > 100 µM
786-0 renal
  TGI: > 100 µM
HCT-116 colon
  TGI: > 100 µM
NCI-H522 lung
  TGI: > 100 µM
NCI/ADR-RES ovarian
  TGI: > 100 µM
IGROV1 ovarian
  TGI: > 100 µM
SK-MEL-5 melanoma
  TGI: > 100 µM
HOP-92 NSCLC
  TGI: > 100 µM
SNB-75 CNS
  TGI: > 100 µM
HT29 colon
  TGI: > 100 µM
KM12 colon
  TGI: > 100 µM
MALME-3M melanoma
  TGI: > 100 µM
A549 NSCLC
  TGI: > 100 µM
CCRF-CEM leukemia
  TGI: > 100 µM
A498 renal
  TGI: > 100 µM
UO-31 renal
  TGI: > 100 µM
MDA-MB-231 breast
  TGI: > 100 µM
ACHN renal
  TGI: > 100 µM
SR leukemia
  TGI: > 100 µM
K-562 leukemia
  TGI: > 100 µM
MDA-N
  TGI: > 100 µM
SK-MEL-2 melanoma
  TGI: > 100 µM
COLO 205 colon
  TGI: > 100 µM
NCI-H226 lung
  TGI: > 100 µM
SNB-19 CNS
  TGI: > 100 µM
SK-OV-3 ovarian
  TGI: > 100 µM
MOLT-4 leukemia
  TGI: > 100 µM
UACC-62 melanoma
  TGI: > 100 µM
SN12C renal
  TGI: > 100 µM
SK-MEL-28 melanoma
  TGI: > 100 µM
M14 melanoma
  TGI: > 100 µM
SF-295 CNS
  TGI: > 100 µM
UACC-257 melanoma
  TGI: > 100 µM
NCI-H23 lung
  TGI: > 100 µM
BT-549 breast
  TGI: > 100 µM
OVCAR-3 ovarian
  TGI: > 100 µM
HL-60(TB) leukemia
  TGI: > 100 µM
HOP-62 NSCLC
  TGI: > 100 µM
HCT-15 colon
  TGI: > 100 µM
SF-539 CNS
  TGI: > 100 µM
NCI-H460 lung
  TGI: > 100 µM
DU-145 prostate
  TGI: > 100 µM
MCF7 breast
  TGI: > 100 µM
OVCAR-8 ovarian
  TGI: > 100 µM
LOX IMVI melanoma
  TGI: > 100 µM
RXF 393 renal
  TGI: > 100 µM
RPMI-8226 leukemia
  TGI: > 100 µM
HCC-2998 colon
  TGI: > 100 µM
SW-620 colon
  TGI: > 100 µM
MDA-MB-435
  TGI: > 100 µM
CAKI-1 renal
  TGI: > 100 µM
OVCAR-4 ovarian
  TGI: > 100 µM
PC-3 prostate
  TGI: > 100 µM
OVCAR-5 ovarian
  TGI: > 100 µM

Source: PubChem BioAssay (NCI)
